The values below are quoted from earlier work in patent US20230265432A1, “METHODS AND COMPOSITIONS FOR TREATING ACUTE MYELOID LEUKEMIA” (Sanford Burnham Prebys Medical Discovery Institute, priority 2021, published 2023).

Structures can show the parent of a compound that is named as a salt. Bounds are passed on as bounds.

The target in data set [1] is SIRT2 (Homo sapiens, UniProt Q8IXJ6). The following applies: cited from earlier work.
Data set [2] concerns the target SIRT3 (Homo sapiens, UniProt Q9NTG7). The conditions noted are these: cited from earlier work.
The target in data set [3] is yeast Hmt1p (Saccharomyces cerevisiae, UniProt P38074). The conditions noted are these: cited from earlier work.
Data set [4] has as its target T1, HIV-1 reverse transcriptase (Human immunodeficiency virus type 1 group M subtype B, UniProt P04585).
T1 construct: HIV-1 reverse transcriptase
The conditions noted are these: cited from earlier work.

Data set [5] has as its target SMYD2 (Homo sapiens, UniProt Q9NRG4). The following applies: cited from earlier work.
The subject of data set [6] is phosphorylation of histone 2A at Thr120 in DU-145 human prostate cancer cells. The following applies: cited from earlier work.
The target in data set [7] is HDAC2 (Homo sapiens, UniProt Q92769). The conditions noted are these: cited from earlier work.
Data set [8] has as its target HDAC4 (Homo sapiens, UniProt P56524). The following applies: cited from earlier work.
The test system of data set [9] is HCT116. The following applies: cited from earlier work.
Data set [10] deals with HuT-78 cells. The following applies: cited from earlier work.
Data set [11] has as its system human dermal fibroblasts. The following applies: cited from earlier work.
Data set [12] addresses T2, HDAC6 (Homo sapiens, UniProt Q9UBN7).
T2 sequence (Q9UBN7 1-1215): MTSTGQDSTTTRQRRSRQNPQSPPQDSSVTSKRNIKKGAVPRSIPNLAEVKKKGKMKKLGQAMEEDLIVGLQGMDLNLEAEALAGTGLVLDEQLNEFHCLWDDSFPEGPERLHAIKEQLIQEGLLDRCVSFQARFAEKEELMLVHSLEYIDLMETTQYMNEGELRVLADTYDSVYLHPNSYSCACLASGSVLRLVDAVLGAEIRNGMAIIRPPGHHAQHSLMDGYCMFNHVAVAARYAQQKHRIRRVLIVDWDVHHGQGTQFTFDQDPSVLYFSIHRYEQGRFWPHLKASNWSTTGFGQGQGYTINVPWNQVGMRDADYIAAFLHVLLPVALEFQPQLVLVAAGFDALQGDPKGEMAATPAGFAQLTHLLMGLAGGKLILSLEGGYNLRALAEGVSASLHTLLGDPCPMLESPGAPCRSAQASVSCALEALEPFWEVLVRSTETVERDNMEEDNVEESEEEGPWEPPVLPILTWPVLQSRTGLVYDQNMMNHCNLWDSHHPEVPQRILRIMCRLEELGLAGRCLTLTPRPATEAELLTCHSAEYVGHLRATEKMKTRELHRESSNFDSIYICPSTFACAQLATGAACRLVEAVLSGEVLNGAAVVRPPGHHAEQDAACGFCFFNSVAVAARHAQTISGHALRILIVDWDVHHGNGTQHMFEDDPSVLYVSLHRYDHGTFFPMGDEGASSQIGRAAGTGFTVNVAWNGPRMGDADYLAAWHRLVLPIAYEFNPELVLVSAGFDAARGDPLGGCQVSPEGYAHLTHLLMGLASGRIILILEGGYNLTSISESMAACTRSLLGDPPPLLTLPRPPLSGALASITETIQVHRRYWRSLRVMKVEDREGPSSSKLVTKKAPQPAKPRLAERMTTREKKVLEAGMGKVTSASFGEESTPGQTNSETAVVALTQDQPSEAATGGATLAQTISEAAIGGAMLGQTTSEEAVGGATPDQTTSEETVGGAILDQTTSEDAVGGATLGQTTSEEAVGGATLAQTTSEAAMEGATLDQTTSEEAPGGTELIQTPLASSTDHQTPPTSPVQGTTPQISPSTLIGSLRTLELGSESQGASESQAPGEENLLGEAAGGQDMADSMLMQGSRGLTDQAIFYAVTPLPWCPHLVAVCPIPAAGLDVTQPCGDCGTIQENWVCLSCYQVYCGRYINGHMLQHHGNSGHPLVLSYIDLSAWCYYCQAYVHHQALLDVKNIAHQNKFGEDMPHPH
The conditions noted are these: cited from earlier work.

Data set [13] addresses HDAC8 (Homo sapiens, UniProt Q9BY41). The following applies: cited from earlier work.
Data set [14] addresses EZH2 (Homo sapiens, UniProt Q15910). The conditions noted are these: cited from earlier work.
Data set [15] has as its target EZH2 (Y641F) (Homo sapiens, UniProt Q15910, Y641F). The conditions noted are these: cited from earlier work.
Data set [16] concerns trimethylation of the PRC2 target H3K27. The following applies: cited from earlier work.
For data set [17], the system named is trimethylation of H3K27 in HCC1806 cells. The conditions noted are these: cited from earlier work.
Data set [18] addresses BRD2 (Homo sapiens, UniProt P25440). The conditions noted are these: cited from earlier work.
Data set [19] has as its target BRD3 (Homo sapiens, UniProt Q15059). The following applies: cited from earlier work.
In data set [20] the target is EZH1 (Homo sapiens, UniProt Q92800). The following applies: cited from earlier work.
EZH1, sequence (Q92800 whole entry, species assumed): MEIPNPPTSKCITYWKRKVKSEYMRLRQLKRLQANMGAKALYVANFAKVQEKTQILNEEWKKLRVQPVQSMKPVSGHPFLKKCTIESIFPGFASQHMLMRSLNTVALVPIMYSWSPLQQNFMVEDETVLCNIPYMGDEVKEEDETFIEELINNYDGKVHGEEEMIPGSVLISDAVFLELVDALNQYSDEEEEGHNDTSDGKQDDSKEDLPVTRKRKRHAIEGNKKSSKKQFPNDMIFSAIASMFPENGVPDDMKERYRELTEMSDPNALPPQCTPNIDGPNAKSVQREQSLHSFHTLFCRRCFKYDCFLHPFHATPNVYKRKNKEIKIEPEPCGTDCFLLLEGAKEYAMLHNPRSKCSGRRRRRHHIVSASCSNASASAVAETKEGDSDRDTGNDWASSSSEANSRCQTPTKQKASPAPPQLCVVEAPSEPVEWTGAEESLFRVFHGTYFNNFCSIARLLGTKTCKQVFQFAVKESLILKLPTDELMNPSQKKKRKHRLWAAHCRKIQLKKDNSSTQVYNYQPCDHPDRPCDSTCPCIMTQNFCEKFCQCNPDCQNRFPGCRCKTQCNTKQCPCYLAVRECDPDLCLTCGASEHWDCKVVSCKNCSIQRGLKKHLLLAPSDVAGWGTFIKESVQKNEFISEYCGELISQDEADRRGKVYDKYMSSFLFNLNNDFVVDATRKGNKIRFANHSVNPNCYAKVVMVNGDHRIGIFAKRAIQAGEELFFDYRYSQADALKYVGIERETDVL
EZH1, sequence (O75530 whole entry partner, species assumed): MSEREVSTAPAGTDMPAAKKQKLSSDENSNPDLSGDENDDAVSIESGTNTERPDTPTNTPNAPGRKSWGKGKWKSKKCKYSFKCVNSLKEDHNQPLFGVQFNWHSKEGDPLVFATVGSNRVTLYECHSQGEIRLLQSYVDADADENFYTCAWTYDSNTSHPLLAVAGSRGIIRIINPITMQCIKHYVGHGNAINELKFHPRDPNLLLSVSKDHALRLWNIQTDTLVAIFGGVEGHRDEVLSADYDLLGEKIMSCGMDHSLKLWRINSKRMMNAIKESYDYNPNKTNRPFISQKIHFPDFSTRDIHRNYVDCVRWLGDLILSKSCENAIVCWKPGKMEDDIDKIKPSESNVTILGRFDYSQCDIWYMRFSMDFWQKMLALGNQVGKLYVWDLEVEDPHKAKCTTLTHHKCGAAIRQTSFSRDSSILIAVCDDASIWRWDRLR
EZH1, sequence (Q15022 whole entry partner, species assumed): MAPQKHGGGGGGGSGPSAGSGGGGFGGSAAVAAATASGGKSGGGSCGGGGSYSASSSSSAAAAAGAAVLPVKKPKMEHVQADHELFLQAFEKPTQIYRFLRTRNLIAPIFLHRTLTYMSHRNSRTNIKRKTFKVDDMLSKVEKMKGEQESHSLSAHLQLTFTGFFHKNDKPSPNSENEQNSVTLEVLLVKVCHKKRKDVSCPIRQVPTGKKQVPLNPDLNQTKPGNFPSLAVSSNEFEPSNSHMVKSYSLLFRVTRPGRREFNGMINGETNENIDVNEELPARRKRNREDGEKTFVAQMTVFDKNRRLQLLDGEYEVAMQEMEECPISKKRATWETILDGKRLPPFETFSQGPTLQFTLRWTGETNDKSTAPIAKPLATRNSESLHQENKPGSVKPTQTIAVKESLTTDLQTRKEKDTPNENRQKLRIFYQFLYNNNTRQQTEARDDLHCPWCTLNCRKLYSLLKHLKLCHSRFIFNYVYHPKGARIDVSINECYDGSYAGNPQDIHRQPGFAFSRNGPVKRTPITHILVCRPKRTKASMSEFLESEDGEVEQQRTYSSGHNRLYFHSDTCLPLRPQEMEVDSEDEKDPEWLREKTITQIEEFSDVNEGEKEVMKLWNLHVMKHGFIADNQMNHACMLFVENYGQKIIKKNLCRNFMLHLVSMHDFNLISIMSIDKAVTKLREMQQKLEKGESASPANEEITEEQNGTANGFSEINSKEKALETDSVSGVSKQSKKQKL
EZH1, sequence (Q09028 whole entry partner, species assumed): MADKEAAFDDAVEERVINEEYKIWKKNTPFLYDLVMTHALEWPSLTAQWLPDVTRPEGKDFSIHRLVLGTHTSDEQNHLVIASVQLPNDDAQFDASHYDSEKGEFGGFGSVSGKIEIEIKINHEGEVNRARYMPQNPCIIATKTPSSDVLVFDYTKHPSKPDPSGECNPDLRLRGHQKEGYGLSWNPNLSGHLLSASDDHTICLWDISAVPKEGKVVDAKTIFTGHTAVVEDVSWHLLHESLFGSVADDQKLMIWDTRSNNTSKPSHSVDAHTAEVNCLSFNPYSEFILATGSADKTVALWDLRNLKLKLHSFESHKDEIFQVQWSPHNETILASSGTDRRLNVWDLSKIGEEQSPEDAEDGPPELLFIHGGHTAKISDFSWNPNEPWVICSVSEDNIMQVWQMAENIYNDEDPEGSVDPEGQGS
Data set [21] relates to EZH2 mutant DLBCL cell lines. The following applies: proliferation; cited from earlier work.
Data set [22] deals with various cancer cell lines. The conditions noted are these: proliferation; cited from earlier work.
Data set [23] concerns the target CBP (Homo sapiens, UniProt Q92793). The conditions noted are these: cited from earlier work.
For data set [24], the target named is JMJD2A (Homo sapiens, UniProt O75164). The following applies: cited from earlier work.
JMJD2A, sequence (O75164 whole entry, species assumed): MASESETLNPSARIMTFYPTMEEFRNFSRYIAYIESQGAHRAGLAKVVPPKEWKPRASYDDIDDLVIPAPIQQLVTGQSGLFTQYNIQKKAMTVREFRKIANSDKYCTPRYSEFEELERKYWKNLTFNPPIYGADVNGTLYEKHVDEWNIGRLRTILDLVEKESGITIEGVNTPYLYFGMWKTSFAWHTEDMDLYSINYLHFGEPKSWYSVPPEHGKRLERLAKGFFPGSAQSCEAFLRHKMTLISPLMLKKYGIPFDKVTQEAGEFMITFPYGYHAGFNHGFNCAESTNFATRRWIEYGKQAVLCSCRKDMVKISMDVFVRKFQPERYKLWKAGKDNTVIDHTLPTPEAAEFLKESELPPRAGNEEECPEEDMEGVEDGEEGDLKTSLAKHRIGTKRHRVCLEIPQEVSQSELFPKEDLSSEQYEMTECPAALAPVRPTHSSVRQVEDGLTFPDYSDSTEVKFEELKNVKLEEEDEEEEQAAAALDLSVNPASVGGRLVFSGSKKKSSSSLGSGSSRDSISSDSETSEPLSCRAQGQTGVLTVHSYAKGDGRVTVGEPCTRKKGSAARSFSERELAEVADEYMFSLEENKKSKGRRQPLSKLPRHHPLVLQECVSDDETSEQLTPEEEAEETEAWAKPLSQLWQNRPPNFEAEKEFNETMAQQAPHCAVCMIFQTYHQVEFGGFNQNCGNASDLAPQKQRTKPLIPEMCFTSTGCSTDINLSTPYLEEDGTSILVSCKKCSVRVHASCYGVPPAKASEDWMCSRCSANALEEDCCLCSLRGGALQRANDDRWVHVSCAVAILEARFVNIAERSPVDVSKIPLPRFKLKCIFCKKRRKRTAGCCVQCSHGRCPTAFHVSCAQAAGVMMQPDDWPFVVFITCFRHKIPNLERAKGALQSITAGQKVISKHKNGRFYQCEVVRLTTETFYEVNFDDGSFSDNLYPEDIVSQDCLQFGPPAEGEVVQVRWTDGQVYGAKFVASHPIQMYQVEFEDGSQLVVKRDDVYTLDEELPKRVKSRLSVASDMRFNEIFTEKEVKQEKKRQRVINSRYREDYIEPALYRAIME
Data set [25] has as its target JMJD2B (Homo sapiens, UniProt O94953). The conditions noted are these: cited from earlier work.
Data set [26] concerns p53K370 monomethylation in cells. The following applies: cited from earlier work.
In data set [27] the target is MOF (Homo sapiens, UniProt Q9H7Z6). The following applies: cited from earlier work.
For data set [28], the target named is jumonji histone demethylase (JMJD2). The following applies: cited from earlier work.
For data set [29], the system named is PARP. The following applies: cited from earlier work.
The target in data set [30] is DNA methyltransferase. The conditions noted are these: cited from earlier work.
For data set [31], the system named is histone methylation in cells. The conditions noted are these: cited from earlier work.
The subject of data set [32] is H3K9 dimethylation in MDA-MB231 cells. The conditions noted are these: cited from earlier work.
Data set [33] addresses G9a and GLP methyltransferases. The following applies: competitive with H3K9 substrates; cited from earlier work.
The subject of data set [34] is H3K9 dimethylation levels in PANC-1 cells. The following applies: cited from earlier work.
Data set [35] relates to H3K27methylation in MCF10A cells. The conditions noted are these: cited from earlier work.
Data set [36] addresses WDR5 (Homo sapiens, UniProt P61964). The conditions noted are these: cited from earlier work.
The target of data set [37] is MLL core complex (Homo sapiens, UniProt P61964). The following applies: in vitro; cited from earlier work.
The target in data set [38] is T3, JAK2 (Homo sapiens, UniProt O60674, V617F).
T3 construct: endogenous in cells; host or cells: HEL cells
The conditions noted are these: in HEL cells; cited from earlier work.

Data set [39] has as its target T4, STAT3 (Homo sapiens, UniProt P40763).
T4 construct: endogenous in cells; host or cells: HEL cells
The conditions noted are these: in HEL cells; cited from earlier work.

Data set [40] addresses EGFR (Homo sapiens, UniProt P00533). The conditions noted are these: cited from earlier work.

EZH2, sequence (Q15910 whole entry, species assumed): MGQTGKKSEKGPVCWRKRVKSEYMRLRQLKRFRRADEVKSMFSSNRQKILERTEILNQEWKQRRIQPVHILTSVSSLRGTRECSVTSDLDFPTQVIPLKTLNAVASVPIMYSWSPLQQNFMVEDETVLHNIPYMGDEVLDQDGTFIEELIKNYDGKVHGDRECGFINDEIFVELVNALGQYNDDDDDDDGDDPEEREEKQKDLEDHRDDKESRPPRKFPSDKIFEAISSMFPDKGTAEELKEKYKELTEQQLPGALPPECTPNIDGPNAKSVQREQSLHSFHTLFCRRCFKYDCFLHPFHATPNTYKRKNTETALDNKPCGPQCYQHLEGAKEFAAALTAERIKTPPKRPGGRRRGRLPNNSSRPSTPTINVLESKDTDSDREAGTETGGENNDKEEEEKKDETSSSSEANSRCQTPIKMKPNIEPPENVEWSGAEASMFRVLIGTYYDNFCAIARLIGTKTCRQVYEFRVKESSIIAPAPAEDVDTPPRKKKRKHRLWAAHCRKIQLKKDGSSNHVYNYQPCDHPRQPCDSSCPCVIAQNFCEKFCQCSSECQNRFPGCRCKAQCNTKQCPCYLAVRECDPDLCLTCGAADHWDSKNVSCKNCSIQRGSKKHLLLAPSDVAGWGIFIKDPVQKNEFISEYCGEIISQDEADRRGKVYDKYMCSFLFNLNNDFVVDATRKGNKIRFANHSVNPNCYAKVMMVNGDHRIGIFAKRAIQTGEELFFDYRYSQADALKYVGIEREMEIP
HDAC8, sequence (Q9BY41 whole entry, species assumed): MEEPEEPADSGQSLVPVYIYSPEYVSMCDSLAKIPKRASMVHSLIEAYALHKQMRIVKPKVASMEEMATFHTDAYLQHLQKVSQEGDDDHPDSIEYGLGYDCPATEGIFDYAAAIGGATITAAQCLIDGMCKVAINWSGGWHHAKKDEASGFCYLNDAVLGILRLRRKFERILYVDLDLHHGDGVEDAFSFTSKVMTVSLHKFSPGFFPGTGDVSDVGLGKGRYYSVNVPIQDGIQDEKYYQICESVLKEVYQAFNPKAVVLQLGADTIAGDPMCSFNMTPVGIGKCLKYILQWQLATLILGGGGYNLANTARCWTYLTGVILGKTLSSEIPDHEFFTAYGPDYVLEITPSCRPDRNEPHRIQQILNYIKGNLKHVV
SIRT2, sequence (Q8IXJ6 whole entry, species assumed): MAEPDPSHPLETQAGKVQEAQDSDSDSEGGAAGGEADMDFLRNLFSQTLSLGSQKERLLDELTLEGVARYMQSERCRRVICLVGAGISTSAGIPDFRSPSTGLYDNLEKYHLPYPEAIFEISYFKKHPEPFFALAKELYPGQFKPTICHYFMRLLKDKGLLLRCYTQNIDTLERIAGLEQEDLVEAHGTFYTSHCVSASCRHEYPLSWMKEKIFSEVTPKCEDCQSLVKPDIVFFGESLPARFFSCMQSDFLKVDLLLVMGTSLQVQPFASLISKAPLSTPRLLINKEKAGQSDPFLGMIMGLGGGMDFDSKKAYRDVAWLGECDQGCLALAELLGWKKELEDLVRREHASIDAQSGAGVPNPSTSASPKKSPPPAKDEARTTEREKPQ

As to `N#C/C(=C\c1ccc(-c2cc(Cl)ccc2Cl)o1)C(=O)Nc1cccc2cccnc12` [AGK7], the results for the IC50 in [1] and in [2] were more than 50000 nM and more than 5000 nM, respectively. With `O=C(Nc1ccc2c(O)cc(S(=O)(=O)O)cc2c1)Nc1ccc2c(O)cc(S(=O)(=O)O)cc2c1` [AMI-1 (sodium salt)], the IC50 (in general, the concentration that gives 50% inhibition) was 3000 nM in data set [3] and 5000 nM in data set [4]. With `O=C1COc2c(CCNCCN(C(=O)CCNCCc3ccc(Cl)c(Cl)c3)C3CCCCC3)ccc(O)c2N1` [AZ 505], the IC50 in data set [5] was 120 nM. Regarding `C(=N\Nc1ncnc2sc3c(c12)CCCC3)/c1c[nH]c2ccccc12` [B32B3], in data set [6], the IC50 is 500 nM. As to `CCOC(=O)NCCCC(=O)NCCc1ccccc1` [CAY10683], the IC50 in [7] is 0.119 nM; in [8], more than 1000 nM; in [12], 434 nM. Moreover, the values for the GI50 in data set [9], in data set [10] and in data set [11] were 29400 nM, 1400 nM and more than 100000 nM, respectively. Consider `Cc1cc(Cl)ccc1OCCCC(=O)NO` [Droxinostat], for which the IC50 in [13] is 1460 nM. For the molecule `CCC(CC)n1ccc2c(C(=O)NCc3c(C)cc(C)[nH]c3=O)cc(C#N)cc21` [EI1], the IC50 in data set [14] is 15 nM; in data set [15], 13 nM. On to `Cc1cc(C)c(CNC(=O)c2cc(-c3ccc(CN4CCOCC4)cc3)cc3c2cnn3C2CCCC2)c(=O)[nH]1` [EPZ005687], for which the IC50 in data set [16] was 80 nM. For `CCCc1cc(C)[nH]c(=O)c1CNC(=O)c1cc(-c2ccnc(N3CCN(C)CC3)c2)cc2c1cnn2C(C)C` [GSK343], the values for the IC50 in [14] and in data set [17] were 4 nM and 174 nM, respectively. Turning to `CC(=O)N1c2ccc(-c3ccc(C(=O)O)cc3)cc2[C@H](Nc2ccc(Cl)cc2)C[C@@H]1C` [GSK1324726A (I-BET726)], the IC50 in [18] is 41 nM; in data set [19], 31 nM.

With `CC[C@H](C)n1cc(C)c2c(C(=O)NCc3c(C)cc(C)[nH]c3=O)cc(-c3ccc(N4CCNCC4)nc3)cc21` [GSK 126], the IC50 in data set [20] is 680 nM; in data set [21], 28 to 61 nM. In addition, the Ki (usually a measure of affinity in units of concentration, obtained from inhibition or displacement) in data set [20] was 89 nM. In the case of `c1ccc([C@@H]2C[C@H]2NC2CCNCC2)cc1` [GSK-LSD1 (hydrochloride)], the EC50 (commonly the concentration at which the effect is half-maximal) in [22] is less than 5 nM. On to `CCC(=O)N1CCOc2c(cc(-c3ccc(OC)c(OC)c3)cc2OC[C@H]2CCCN(C)C2)C1` [I-CBP112 (hydrochloride)], for which the Kd (usually the constant that tells how readily two partners part at equilibrium) in [23] was 142 nM.

In the case of `Clc1ccc(N/N=C(\c2ccccc2)c2ccccn2)nc1` [JIB-04], the IC50 in data set [24] is 445 nM; in [25] it was 435 nM. `Cc1cn(CCN2CCN(c3ccccc3-c3cc(C#N)cc(C(=O)NCCCN4CCCC4)c3)CC2)c2ccccc12` [LLY-507]: the IC50 in data set [26] was approximately 600 nM. For `CCCCCCCc1ccc(CCc2cccc(O)c2C(=O)O)cc1` [MG149], the IC50 in data set [27] was 47000 nM. In the case of `CN(C)CCCNC(=O)c1ccc(-c2cc(O)c3ncccc3c2)cc1` [ML324], the IC50 in [28] was 920 nM. With `CN(C)CC(=O)Nc1ccc2[nH]c(=O)c3ccccc3c2c1` [PJ34], the EC50 in data set [29] is 20 nM.

With `O=C(O)C(Cc1c[nH]c2ccccc12)N1C(=O)c2ccccc2C1=O` (stereo not shown) [RG108], the IC50 in [30] was 115 nM. For `O=C(NCC(=O)N1CCCC1)Nc1ccc2cnccc2c1` [SGC707], the IC50 in data set [31] is less than 1000 nM.

On to `COc1cc2c(NC3CCN(C(C)C)CC3)nc(N3CCC(F)(F)CC3)nc2cc1OCCCN1CCCC1` [UNC0642], for which the IC50 in [32] was 110 nM; in [34], 40 nM. The Ki in [33] is 3.7 nM. `CCCc1cc(C)[nH]c(=O)c1CNC(=O)c1cc(-c2ccc(N3CCN(C(C)C)CC3)nc2)cc2c1cnn2C(C)C` [UNC1999]: the values for the IC50 in [14] and in [35] were 2 nM and 124 nM, respectively. For `COC(=O)c1ccc(N2CCN(C)CC2)c(NC(=O)c2cccc(OC)c2)c1` [WDR5-0103], the Kd in data set [36] was 450 nM. Also, the IC50 in data set [37] is 39000 nM.

Regarding `C[C@H](NC(=O)/C(C#N)=C/c1cccc(Br)n1)c1ccccc1` [WP1066], the IC50 in data set [38] is 2300 nM; in data set [39], 2430 nM. Consider AG-490 (Tyrphostin B42), for which the “fold more selective for EGFR versus ErbB2” value in data set [40] is reported as 135 fold.
